Data from patent US20250127800A1, “PYRIMIDINE OR PYRIDINE DERIVATIVE AND MEDICINAL USE THEREOF” (SIGNET THERAPEUTICS INC., priority 2021, published 2025).
Read-outs that look alike come from different tables or passages of the source.

Legend:
FAK = FAK (Homo sapiens (Human), UniProt Q05397); assay: In vitro enzymatic inhibitory activity, FAK kinase (HTRF KinEASE-TK)
SNU-668 cells = assay: Cell proliferation inhibition, SNU-668 (CELL TITER-GLO); assay type: cell-based; details: Homo sapiens, SNU668, 96 h; SNU-668, 4 days
Protocol: (§1) • a. SNU-668 cells (catalog number: 00668, KCLB) or NUGC4 cells (catalog number: 0834, JCRB) were allowed to grow to 70%-80% confluence, the supernatant of the culture medium was pipetitted off, rinsed once with PBS and then pipetitted off; • b. To a 10 cm dish was added 1 mL of 0.25% trypsin, votexed to homogenity and then place into incubator for digestion for 2-3 min; • c. The culture dish is removed from the incubator added with 2-3 mL complete culture medium to terminate the digestion, pipetitted into a 15 mL centrifuge tube, and then centrifuged in centrifuge at 1000 rpm for 5 minutes; • d. The supernatant was pipetitted off, and the cells were resuspended in 1 mL of complete culture medium, and then counted; • e. 1000 cells were plated into each well of 96-well plate, and then cultured overnight in a cell incubator, 2) Cell Administration with Compounds • a. Compounds to be tested were dissolved and votexed to homogeneity; • b. Each compound was serielly diluted in 1:3 ratio from 1 mM stock solution to 9 gradient concentrations; • c. The plate seeded with cells was taken out from the incubator, pipetitted off culture medium, and then added slowly in each well with 100 μL fresh culture medium by multi-channel pipette. Wells are labeled by corresponding compounds and concentrations, and then gently added with 100 μL compound-containing culture medium along the well wall by multi-channel pipette; • d. After the addition to all wells, the plate was gently shaken to allow homogeneous spread of the compound, and then put back to the incubator, with time recorded;
(§2) 4 days after the addition of compounds, the culture medium was removed and mixed at 100 μL from each well with cell titer-glo testing liquid in 1:1 ratio. The mixture was incubated with shaking at room temperature for 10 min and then counted with Plate reader.

NUGC4 cells = assay: Cell proliferation inhibition, NUGC4 (CELL TITER-GLO); assay type: cell-based; details: Homo sapiens, NUGC-4, 96 h; NUGC4, 4 days
Protocol: as §1, §2

[1] = In vivo pharmacokinetic evaluation in SD rats, gavage; details: rat, plasma, po, male SD rats
Protocol: Three male SD rats were administered with compounds in a single dose of 5 mg/kg or 3 mg/kg by gavage, and blood samples were collected before administration and at 0.25, 0.5, 1, 2, 4, 6, 8, and 24 h after administration.
Preparation of solutions of compounds to be dosed at 5 mg/kg: 5.5 mg compound (converted based on purity) was accurately weighed and added to 0.55 mL of DMSO. Clear solutions were obtained after stirring and sonication. 0.5 mL of each of the above solutions was added with 1 mL of Solutol, stirred for 1 minute; and then added with 8.5 mL of physiological saline and stirred for 1 minute, to obtain a clear solution at 0.5 mg/mL concentration.
Preparation of a solution of compounds to be dosed at 3 mg/kg: 3.6 mg compound (converted according to purity) was accurately weighed and added to 0.6 mL of DMSO. Clear solutions were obtained after stirring and sonication. 0.5 mL of each of the above solutions was added with 1 mL of Solutol and stirred for 1 minute; and then added with 8.5 mL of physiological saline and stirred for 1 minute, to obtain a clear solution at 0.3 mg/mL concentration.
Rats were administered the formulations prepared in step 2 by gavage at a dose of 10 mL/kg. The rats were fasted overnight before the administration and resumed feeding 4 hours after administration. Throughout the entire experiment, the animals were free to access drinking water.
The plasma concentration was measured using LC-MS/MS method.

[2] = FAK kinase, enzyme pre-incubation 15 minutes at 25° C.

Chain of FAK (Q05397 whole entry, species assumed): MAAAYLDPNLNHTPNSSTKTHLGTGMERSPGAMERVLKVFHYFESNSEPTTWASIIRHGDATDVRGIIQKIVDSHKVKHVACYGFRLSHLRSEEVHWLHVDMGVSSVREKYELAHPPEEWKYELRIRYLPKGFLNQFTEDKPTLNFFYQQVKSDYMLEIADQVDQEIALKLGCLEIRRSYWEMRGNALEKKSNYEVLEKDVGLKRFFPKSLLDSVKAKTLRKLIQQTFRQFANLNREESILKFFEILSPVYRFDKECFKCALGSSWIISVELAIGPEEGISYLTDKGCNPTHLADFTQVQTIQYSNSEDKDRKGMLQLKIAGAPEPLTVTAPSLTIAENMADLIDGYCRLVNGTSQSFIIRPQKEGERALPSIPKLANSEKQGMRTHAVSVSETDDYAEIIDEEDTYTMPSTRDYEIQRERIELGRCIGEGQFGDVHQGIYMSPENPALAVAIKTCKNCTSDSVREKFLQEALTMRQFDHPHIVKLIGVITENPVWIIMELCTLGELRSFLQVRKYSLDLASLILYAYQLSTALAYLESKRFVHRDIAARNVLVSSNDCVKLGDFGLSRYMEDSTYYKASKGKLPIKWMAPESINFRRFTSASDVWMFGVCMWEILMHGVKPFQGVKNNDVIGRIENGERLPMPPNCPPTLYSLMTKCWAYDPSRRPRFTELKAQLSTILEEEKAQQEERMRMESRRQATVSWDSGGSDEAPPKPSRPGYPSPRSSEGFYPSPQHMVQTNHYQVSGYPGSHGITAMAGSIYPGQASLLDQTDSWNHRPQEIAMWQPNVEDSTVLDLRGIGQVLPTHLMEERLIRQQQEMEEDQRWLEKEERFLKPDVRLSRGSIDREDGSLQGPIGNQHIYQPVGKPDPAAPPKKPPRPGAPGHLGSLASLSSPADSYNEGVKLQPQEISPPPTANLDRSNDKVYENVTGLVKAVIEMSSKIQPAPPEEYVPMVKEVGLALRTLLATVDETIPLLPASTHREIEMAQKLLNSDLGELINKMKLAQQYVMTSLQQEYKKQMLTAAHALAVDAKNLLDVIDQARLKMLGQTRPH

Row | Compound | IC50 (FAK; [2]) [µM] | IC50 (SNU-668 cells) [µM] | IC50 (NUGC4 cells) [µM] | further results
1 | C=CC(=O)N1CCC(NC(=O)c2ccc(Nc3ncc(C(F)(F)F)c(NCc4nccnc4N(C)S(C)(=O)=O)n3)c(OC)c2)CC1 [Compound 1, N-(1-acryloylpiperidin-4-yl)-3-methoxy-4-((4-(((3-(N-methylmethanesulfonylamido)pyrazin-2-yl)methyl)amino)-5-(trifluoromethyl)pyrimidin-2-yl)amino)benzamide] | 0.00113 |  |  | 
2 | C=CC(=O)N1CCC(CNC(=O)c2ccc(Nc3ncc(C(F)(F)F)c(Nc4ccccc4P(C)(C)=O)n3)c(OC)c2)CC1 [Compound 8, N-((1-acryloylpiperidin-4-yl)methyl)-4-((4-((2-(dimethylphosphoryl)phenyl)amino)-5-(trifluoromethyl)pyrimidin-2-yl)amino)-3-methoxybenzamide] | 0.00579 |  |  | 
3 | C=CC(=O)N1CCCC(c2cccc(NCc3ccc(Nc4ncc(C(F)(F)F)c(Nc5ccccc5P(C)(C)=O)n4)cc3)c2)C1 (stereo not shown) [Compound 10, 1-(3-(3-((4-((4-((2-(dimethylphosphoryl)phenyl)amino)-5-(trifluoromethyl)pyrimidin-2-yl)amino)benzyl)amino)phenyl)piperidin-1-yl)prop-2-en-1-one] | 0.0158 |  |  | 
4 | C=CC(=O)N1CCCC(c2cccc(NCc3ccc(Nc4ncc(C(F)(F)F)c(NCc5nccnc5N(C)S(C)(=O)=O)n4)cc3)c2)C1 (stereo not shown) [Compound 14, N-(3-(((2-((4-(((3-(1-acryloylpiperidin-3-yl)phenyl)amino)methyl)phenyl)amino)-5-(trifluoromethyl)pyrimidin-4-yl)amino)methyl)pyrazin-2-yl)-N-methylmethanesulfonamide] | 0.00436 |  |  | 
5 | C=CC(=O)N1CCCC(c2cccc(NCc3ccc(Nc4ncc(Cl)c(Nc5ccccc5C(=O)NC)n4)cc3)c2)C1 (stereo not shown) [Compound 15] |  | 0.11 |  | 
6 | C=CC(=O)N1CCCC(c2cccc(NCc3ccc(Nc4ncc(Br)c(Nc5ccccc5C(=O)NC)n4)cc3)c2)C1 (stereo not shown) [Compound 16, 2-((2-((4-(((3-(1-acryloylpiperidin-3-yl)phenyl)amino)methyl)phenyl)amino)-5-bromopyrimidin-4-yl)amino)-N-methylbenzamide] | 0.00673 | 0.06 |  | 
7 | C=CC(=O)N1CCCC(c2cccc(NCc3ccc(Nc4ncc(C(F)(F)F)c(Nc5ccccc5C(=O)NCC)n4)cc3)c2)C1 (stereo not shown) [Compound 17, 2-((2-((4-(((3-(1-acryloylpiperidin-3-yl)phenyl)amino)methyl)phenyl)amino)-5-(trifluoromethyl)pyrimidin-4-yl)amino)-N-ethylbenzamide] | 0.00613 | < 0.01 |  | 
8 | C=CC(=O)N1CCCC(c2cccc(NCc3ccc(Nc4ncc(C(F)(F)F)c(Nc5ccccc5C(=O)NC(C)C)n4)cc3)c2)C1 (stereo not shown) [Compound 18, 2-((2-((4-(((3-(1-acryloylpiperidin-3-yl)phenyl)amino)methyl)phenyl)amino)-5-(trifluoromethyl)pyrimidin-4-yl)amino)-N-isopropylbenzamide] | 0.0179 | 0.14 |  | 
9 | C=CC(=O)N1CCCC(c2cccc(NCc3ccc(Nc4ncc(C(F)(F)F)c(Nc5cccc6c5C(=O)N(C)C6)n4)cc3)c2)C1 (stereo not shown) [Compound 20, 7-((2-((4-(((3-(1-acryloylpiperidin-3-yl)phenyl)amino)methyl)phenyl)amino)-5-(trifluoromethyl)pyrimidin-4-yl)amino)-2-methylisoindolin-1-one] | 0.00498 |  | 0.34 | 
10 | CC#CC(=O)N1CCCC(c2cccc(NCc3ccc(Nc4ncc(C(F)(F)F)c(Nc5ccccc5C(=O)NC)n4)cc3)c2)C1 (stereo not shown) [Compound 21, 2-((2-((4-(((3-(1-(2-butynoyl)piperidin-3-yl)phenyl)amino)methyl)phenyl)amino)-5-(trifluoromethyl)pyrimidin-4-yl)amino)-N-methylbenzamide] | 0.00433 |  | 0.04 | 
11 | C=C(C)C(=O)N1CCCC(c2cccc(NCc3ccc(Nc4ncc(C(F)(F)F)c(Nc5ccccc5C(=O)NC)n4)cc3)c2)C1 (stereo not shown) [Compound 24, 2-((2-((4-(((3-(1-methylacryloylpiperidin-3-yl)phenyl)amino)methyl)phenyl)amino)-5-(trifluoromethyl)pyrimidin-4-yl)amino)-N-methylbenzamide] |  |  | 0.02 | 
12 | C#CC(=O)N1CCCC(c2cccc(NCc3ccc(Nc4ncc(C(F)(F)F)c(Nc5ccccc5C(=O)NC)n4)cc3)c2)C1 (stereo not shown) [Compound 31] |  | < 0.01 | 0.02 | 
13 | C=C(F)C(=O)N1CCCC(c2cccc(NCc3ccc(Nc4ncc(C(F)(F)F)c(Nc5ccccc5C(=O)NC)n4)cc3)c2)C1 (stereo not shown) [Compound 33, 2-((2-((4-(((3-(1-(2-fluoroacryloyl)piperidin-3-yl)phenyl)amino)methyl)phenyl)amino)-5-(trifluoromethyl)pyrimidin-4-yl)amino)-N-methylbenzamide] |  |  | 0.02 | 
14 | C=CC(=O)N1CCC[C@@H](c2cccc(NCc3ccc(Nc4ncc(C(F)(F)F)c(Nc5ccccc5C(=O)NOC)n4)cc3)c2)C1 [Compound 37, (S) 2-((2-((4-(((3-(1-acryloylpiperidin-3-yl)phenyl)amino)methyl)phenyl)amino)-5-(trifluoromethyl)pyrimidin-4-yl)amino)-N-methoxybenzamide] |  |  | 0.12 | AUC(0-inf) ([1]; 3 mg/kg): 0.368 µM·h; AUC(0-t) ([1]; 3 mg/kg): 0.361 µM·h; Cmax ([1]; 3 mg/kg): 87.2 nM; Tmax ([1]; 3 mg/kg): 2.67 h; half-life ([1]; 3 mg/kg): 1.07 h; IC50 (FAK): 0.00135 µM

The remaining compounds from weak to strong by IC50 (FAK; [2]), led by results:

Row | IC50 (FAK; [2]) [µM] | IC50 (SNU-668 cells) [µM] | Compound | IC50 (NUGC4 cells) [µM] | further results
15 | 0.00375 | 0.09 | C=CC(=O)N1CCCC(c2cccc(NCc3ccc(Nc4ncc(C(F)(F)F)c(Nc5ccccc5S(=O)(=O)NC)n4)cc3)c2)C1 (stereo not shown) [Compound 30, 2-((2-((4-(((3-(1-acryloylpiperidin-3-yl)phenyl)amino)methyl)phenyl)amino)-5-(trifluoromethyl)pyrimidin-4-yl)amino)-N-methylbenzenesulfonamide] |  | 
16 | 0.00358 |  | C=CC(=O)N1CCC(CNC(=O)c2ccc(Nc3ncc(C(F)(F)F)c(Nc4ccccc4P(C)(C)=O)n3)cc2)CC1 [Compound 7, N-((1-acryloylpiperidin-4-yl)methyl)-4-((4-((2-(dimethylphosphoryl)phenyl)amino)-5-(trifluoromethyl)pyrimidin-2-yl)amino)benzamide] |  | 
17 | 0.00343 |  | C/C=C/C(=O)N1CCCC(c2cccc(NCc3ccc(Nc4ncc(C(F)(F)F)c(Nc5ccccc5C(=O)NC)n4)cc3)c2)C1 (stereo not shown) [Compound 32, (E)-2-((2-((4-(((3-(1-(but-2-enoyl)piperidin-3-yl)phenyl)amino)methyl)phenyl)amino)-5-(trifluoromethyl)pyrimidin-4-yl)amino)-N-methylbenzamide] | 0.04 | 
18 | 0.00145 |  | C=CC(=O)N1CCC[C@@H](c2cccc(NCc3ccc(Nc4ncc(C(F)(F)F)c(Nc5ccccc5C(=O)NC)n4)cc3)c2)C1 [Compound 35, (S)-2-((2-((4-(((3-(1-acryloylpiperidin-3-yl)phenyl)amino)methyl)phenyl)amino)-5-(trifluoromethyl)pyrimidin-4-yl)amino)-N-methylbenzamide] |  | AUC(0-inf) ([1]; 5 mg/kg): 0.548 µM·h; AUC(0-t) ([1]; 5 mg/kg): 0.54 µM·h; Cmax ([1]; 5 mg/kg): 130 nM; Tmax ([1]; 5 mg/kg): 2.67 h; half-life ([1]; 5 mg/kg): 0.96 h
19 | 0.00127 |  | C=CC(=O)N1CCC[C@H](c2cccc(NCc3ccc(Nc4ncc(C(F)(F)F)c(Nc5ccccc5C(=O)NC)n4)cc3)c2)C1 [Compound 34, (R)-2-((2-((4-(((3-(1-acryloylpiperidin-3-yl)phenyl)amino)methyl)phenyl)amino)-5-(trifluoromethyl)pyrimidin-4-yl)amino)-N-methylbenzamide] | 0.08 | 
20 | 0.00097 |  | C=CC(=O)N1CCC[C@H](c2cccc(NCc3ccc(Nc4ncc(C(F)(F)F)c(Nc5ccccc5C(=O)NOC)n4)cc3)c2)C1 [Compound 36, (R) 2-((2-((4-(((3-(1-acryloylpiperidin-3-yl)phenyl)amino)methyl)phenyl)amino)-5-(trifluoromethyl)pyrimidin-4-yl)amino)-N-methoxybenzamide] | 0.09 | AUC(0-inf) ([1]; 3 mg/kg): 0.711 µM·h; AUC(0-t) ([1]; 3 mg/kg): 0.689 µM·h; Cmax ([1]; 3 mg/kg): 146 nM; Tmax ([1]; 3 mg/kg): 2.67 h; half-life ([1]; 3 mg/kg): 1.2 h
